“And” between values parts separate entries of the source, which are not always exact repeats. Equal values may be shown once. Toxic doses and inconclusive results are not listed.
System: L1210 leukemia ip in BDF1 mice, survival T/C
Assay: NCI In Vivo Anticancer Drug Screen. Data for tumor model L1210 Leukemia (intraperitoneal) in B6D2F1 (BDF1) mice
Details: endpoint: mean survival time, higher = longer survival
Method in brief: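 Mice bearing the transplanted tumor received compound or vehicle. Survival of the treated group was divided by that of the vehicle-treated control group to give the ratio.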

[1] = dose: 100.0 mg/kg/injection, schedule: Q01DX001 (ip), vehicle: saline
[2] = dose: 200.0 mg/kg/injection, schedule: Q01DX001 (ip), vehicle: saline
[3] = dose: 400.0 mg/kg/injection, schedule: Q01DX001 (ip), vehicle: saline
[4] = dose: 100.0 mg/kg/injection, schedule: Q04DX002 (ip), vehicle: saline with Tween-80
[5] = dose: 200.0 mg/kg/injection, schedule: Q04DX002 (ip), vehicle: saline with Tween-80
[6] = dose: 100.0 mg/kg/injection, schedule: Q01DX009 (ip), vehicle: Klucel (hydroxypropylcellulose) (HPC)
[7] = dose: 100.0 mg/kg/injection, schedule: Q04DX003 (ip), vehicle: Klucel (hydroxypropylcellulose) (HPC)
[8] = dose: 200.0 mg/kg/injection, schedule: Q01DX009 (ip), vehicle: Klucel (hydroxypropylcellulose) (HPC)
[9] = dose: 200.0 mg/kg/injection, schedule: Q04DX003 (ip), vehicle: Klucel (hydroxypropylcellulose) (HPC)
[10] = dose: 400.0 mg/kg/injection, schedule: Q04DX003 (ip), vehicle: Klucel (hydroxypropylcellulose) (HPC)
[11] = dose: 100.0 mg/kg/injection, schedule: Q01DX001 (ip), vehicle: Klucel (hydroxypropylcellulose) (HPC)

## NC(=S)Nc1ccccc1Cl
[1]
  T/C: 103 % of control
[2]
  T/C: 101 % of control

## O=C(O)C(Oc1ccccc1O)C(=O)O
dose: 100.0 mg/kg/injection, schedule: Q04DX003 (ip), vehicle: saline
  T/C: 95 % of control
dose: 200.0 mg/kg/injection, schedule: Q04DX003 (ip), vehicle: saline
  T/C: 93 % of control

## CN(N=O)C(=O)NC(=O)N(C)N=O
dose: 18.0 mg/kg/injection, schedule: Q01DX Z (ip), vehicle: carboxymethylcellulose (CMC)
  T/C: 155 % of control
dose: 27.5 mg/kg/injection, schedule: Q01DX001 (ip), vehicle: carboxymethylcellulose (CMC)
  T/C: 110 % of control
dose: 54.0 mg/kg/injection, schedule: Q01DX001 (ip), vehicle: carboxymethylcellulose (CMC)
  T/C: 118 % of control
dose: 75.0 mg/kg/injection, schedule: Q01DX Z (ip), vehicle: carboxymethylcellulose (CMC)
  T/C: 87 % of control
dose: 108.0 mg/kg/injection, schedule: Q01DX001 (ip), vehicle: carboxymethylcellulose (CMC)
  T/C: 86 % of control

## CC[N+]1(CC)CC[N+](CC)(CC)CC1
[1]
  T/C: 97 % of control
dose: 100.0 mg/kg/injection, schedule: Q04DX002 (ip), vehicle: saline
  T/C: 96 % of control
[2]
  T/C: 97 % of control
dose: 200.0 mg/kg/injection, schedule: Q04DX002 (ip), vehicle: saline
  T/C: 96 % of control
[3]
  T/C: 102 % of control
dose: 400.0 mg/kg/injection, schedule: Q04DX002 (ip), vehicle: saline
  T/C: 107 % of control

## O=C1CCOc2ccccc21
dose: 100.0 mg/kg/injection, schedule: Q04DX002 (ip), vehicle: other
  T/C: 87 % of control
dose: 200.0 mg/kg/injection, schedule: Q04DX002 (ip), vehicle: other
  T/C: 90 % of control
dose: 400.0 mg/kg/injection, schedule: Q04DX002 (ip), vehicle: other
  T/C: 94 % of control

## O=C(O)c1cc(O)c2c(c1)C(C1c3cc(C(=O)O)cc(O)c3C(=O)c3c(OC4OC(CO)C(O)C(O)C4O)cccc31)c1cccc(OC3OC(CO)C(O)C(O)C3O)c1C2=O (centres undefined)
[1]
  T/C: 98 % of control and 101 % of control
[2]
  T/C: 97 % of control
[3]
  T/C: 103 % of control and 106 % of control

## CC(C)(C)Sc1nc2ccccc2s1
dose: 25.0 mg/kg/injection, schedule: Q04DX002 (ip), vehicle: saline with Tween-80
  T/C: 93 % of control
dose: 50.0 mg/kg/injection, schedule: Q04DX002 (ip), vehicle: saline with Tween-80
  T/C: 93 % of control
[4]
  T/C: 96 % of control
[5]
  T/C: 105 % of control and 119 % of control
dose: 400.0 mg/kg/injection, schedule: Q04DX002 (ip), vehicle: saline with Tween-80
  T/C: 107 % of control

## CCC1(O)CC2CN(CCc3c([nH]c4ccccc34)C(C(=O)OC)(c3cc4c(cc3OC)N(C)C3C(O)(C(=O)NCCSSCCNC(=O)C5(O)C(O)C6(CC)C=CCN7CCC8(c9cc(C%10(C(=O)OC)CC%11CN(CCc%12c%10[nH]c%10ccccc%12%10)CC(O)(CC)C%11)c(OC)cc9N(C)C58)C76)C(O)C5(CC)C=CCN6CCC43C65)C2)C1 (centres undefined)
dose: 1800.0 micrograms/kg/injection, schedule: Q04DX003 (ip), vehicle: saline
  T/C: 154 % of control
dose: 3000.0 micrograms/kg/injection, schedule: Q04DX003 (ip), vehicle: saline
  T/C: 119 % of control

## CCCCCCCNC(=O)Nc1cccc(Cl)c1C
dose: 25.0 mg/kg/injection, schedule: Q04DX003 (ip), vehicle: Klucel (hydroxypropylcellulose) (HPC)
  T/C: 103 % of control
dose: 50.0 mg/kg/injection, schedule: Q01DX009 (ip), vehicle: Klucel (hydroxypropylcellulose) (HPC)
  T/C: 101 % of control
dose: 50.0 mg/kg/injection, schedule: Q04DX003 (ip), vehicle: Klucel (hydroxypropylcellulose) (HPC)
  T/C: 101 % of control
[6]
  T/C: 89 % of control
[7]
  T/C: 95 % of control and 101 % of control
[8]
  T/C: 93 % of control

## Nc1cc2c3c(cccc3c1)C(=O)N(Cc1ccccc1)C2=O
dose: 75.0 mg/kg/injection, schedule: Q01DX009 (ip), vehicle: Klucel (hydroxypropylcellulose) (HPC)
  T/C: 89 % of control
dose: 150.0 mg/kg/injection, schedule: Q01DX009 (ip), vehicle: Klucel (hydroxypropylcellulose) (HPC)
  T/C: 92 % of control
dose: 300.0 mg/kg/injection, schedule: Q01DX009 (ip), vehicle: Klucel (hydroxypropylcellulose) (HPC)
  T/C: 97 % of control

## O=C(OC1OCC(OCc2ccccc2)C(OCc2ccccc2)C1OCc1ccccc1)c1ccc([N+](=O)[O-])cc1 (centres undefined)
dose: 100.0 mg/kg/injection, schedule: Q01DX001 (ip), vehicle: other
  T/C: 88 % of control
dose: 200.0 mg/kg/injection, schedule: Q01DX001 (ip), vehicle: other
  T/C: 90 % of control
dose: 400.0 mg/kg/injection, schedule: Q01DX001 (ip), vehicle: other
  T/C: 90 % of control

## COc1ccc(CC[n+]2cccc(C(C)=O)c2)cc1OC
dose: 75.0 mg/kg/injection, schedule: Q01DX001 (ip), vehicle: saline
  T/C: 103 % of control
dose: 150.0 mg/kg/injection, schedule: Q01DX001 (ip), vehicle: saline
  T/C: 106 % of control
dose: 300.0 mg/kg/injection, schedule: Q01DX001 (ip), vehicle: saline
  T/C: 113 % of control

## CCN(CC)CCCOC(=O)C(c1ccccc1)C1CCCCC1 (centres undefined)
dose: 6.25 mg/kg/injection, schedule: Q01DX009 (ip), vehicle: saline
  T/C: 97 % of control
dose: 6.25 mg/kg/injection, schedule: Q04DX003 (ip), vehicle: saline
  T/C: 100 % of control
dose: 12.5 mg/kg/injection, schedule: Q01DX009 (ip), vehicle: saline
  T/C: 94 % of control
dose: 12.5 mg/kg/injection, schedule: Q04DX003 (ip), vehicle: saline
  T/C: 102 % of control
dose: 25.0 mg/kg/injection, schedule: Q01DX009 (ip), vehicle: saline
  T/C: 94 % of control
dose: 25.0 mg/kg/injection, schedule: Q04DX003 (ip), vehicle: saline
  T/C: 102 % of control

## CCCCSN1CCCCC1
[4]
  T/C: 93 % of control
[5]
  T/C: 93 % of control

## COc1nc(N/N=C/c2ccccc2O)ccc1[N+](=O)[O-]
[7]
  T/C: 93 % of control
[9]
  T/C: 93 % of control
[10]
  T/C: 95 % of control

## CC(C)(C)c1ccc(S(=O)(=O)c2ccc(C(C)(C)C)c(N=C=O)c2)cc1N=C=O
dose: 75.0 mg/kg/injection, schedule: Q04DX002 (ip), vehicle: saline with Tween-80
  T/C: 96 % of control
dose: 150.0 mg/kg/injection, schedule: Q04DX002 (ip), vehicle: saline with Tween-80
  T/C: 101 % of control
dose: 300.0 mg/kg/injection, schedule: Q04DX002 (ip), vehicle: saline with Tween-80
  T/C: 93 % of control

## [B-][N+](C)(C)C
dose: 3.13 mg/kg/injection, schedule: Q01DX001 (ip), vehicle: Klucel (hydroxypropylcellulose) (HPC)
  T/C: 99 % of control
dose: 6.25 mg/kg/injection, schedule: Q01DX001 (ip), vehicle: Klucel (hydroxypropylcellulose) (HPC)
  T/C: 101 % of control
dose: 12.5 mg/kg/injection, schedule: Q01DX001 (ip), vehicle: Klucel (hydroxypropylcellulose) (HPC)
  T/C: 99 % of control
dose: 25.0 mg/kg/injection, schedule: Q01DX001 (ip), vehicle: Klucel (hydroxypropylcellulose) (HPC)
  T/C: 106 % of control
dose: 50.0 mg/kg/injection, schedule: Q01DX001 (ip), vehicle: Klucel (hydroxypropylcellulose) (HPC)
  T/C: 109 % of control
[11]
  T/C: 103 % of control

## O=C(Nc1ccc(S(=O)(=O)F)cc1)c1ccc(COc2ccc([N+](=O)[O-])cc2Cl)cc1
dose: 100.0 mg/kg/injection, schedule: Q01DX009 (ip), vehicle: saline with Tween-80
  T/C: 92 % of control
dose: 200.0 mg/kg/injection, schedule: Q01DX009 (ip), vehicle: saline with Tween-80
  T/C: 94 % of control
dose: 400.0 mg/kg/injection, schedule: Q01DX009 (ip), vehicle: saline with Tween-80
  T/C: 94 % of control

## CC(=O)C1=CCCCC1
[7]
  T/C: 96 % of control
[9]
  T/C: 105 % of control
[10]
  T/C: 93 % of control

## COc1cc2c(cc1OC)/C(=C\C(=O)N1CCCC1=O)CCC2
[6]
  T/C: 96 % of control
[7]
  T/C: 104 % of control
[8]
  T/C: 97 % of control
[9]
  T/C: 102 % of control
dose: 400.0 mg/kg/injection, schedule: Q01DX009 (ip), vehicle: Klucel (hydroxypropylcellulose) (HPC)
  T/C: 94 % of control
[10]
  T/C: 101 % of control

## O=C(NCCCl)NCc1ccccc1
[7]
  T/C: 103 % of control
[9]
  T/C: 107 % of control
[10]
  T/C: 113 % of control

## ClCc1cc(OCc2ccccc2)ccc1OCc1ccccc1
dose: 75.0 mg/kg/injection, schedule: Q04DX003 (ip), vehicle: Klucel (hydroxypropylcellulose) (HPC)
  T/C: 86 % of control
[11]
  T/C: 101 % of control
dose: 150.0 mg/kg/injection, schedule: Q04DX003 (ip), vehicle: Klucel (hydroxypropylcellulose) (HPC)
  T/C: 91 % of control
dose: 200.0 mg/kg/injection, schedule: Q01DX001 (ip), vehicle: Klucel (hydroxypropylcellulose) (HPC)
  T/C: 94 % of control
dose: 300.0 mg/kg/injection, schedule: Q04DX003 (ip), vehicle: Klucel (hydroxypropylcellulose) (HPC)
  T/C: 86 % of control
dose: 400.0 mg/kg/injection, schedule: Q01DX001 (ip), vehicle: Klucel (hydroxypropylcellulose) (HPC)
  T/C: 97 % of control

From PubChem BioAssay AID248 (DTP/NCI, 2004)
